The source of these data is publication PMC5365662, “A Short Double-Stapled Peptide Inhibits Respiratory Syncytial Virus Entry and Spreading” (Antimicrobial Agents and Chemotherapy, 2017).

Data set [1] in a line: Proteolytic stability assay, chymotrypsin. As to conditions: chymotrypsin (isolated protease); 10 μl peptide 0.29 mM in 990 μl 100 mM Tris-HCl pH 8.0, 10 mM CaCl2; 10 μl chymotrypsin 50 μg/ml; 25°C; LC-MS of intact peptide, exponential decay fit; 3 experiments. In kind it is in vitro ADME. The procedure: This is an important parameter to assess for the development of peptide therapeutics. Peptides 4bb, 4ca, and 4a, and the unstapled analog peptide 4, as well as both SAH-RSVFBD isomers, were treated with chymotrypsin or trypsin, and the samples were analyzed by LC/MS to quantify the reaction products over time. […] In comparison, both SAH-RSVFBD isomers were more susceptible to proteolytic degradation, with half-lives of approximately 7 h and 5 min against chymotrypsin and trypsin, respectively.
In vitro proteolytic degradation was measured via LC-MS using an Agilent Infinity 1280 UHPLC system coupled to an Agilent quadrupole time of flight (QTOF) 6530 instrument with an Agilent Jet Stream electrospray ionization (AJS ESI) source (all from Agilent Technologies, Waldbronn, Germany). Five microliters of digested sample was injected onto a C18 column (Zorbax Eclipse Plus RRHD, 1.8 μm, 2.1 by 100 mm; Agilent Technologies, Waldbronn, Germany) equilibrated with solvent A (5% acetonitrile, 0.2% formic acid) and eluted with a flow rate of 0.4 ml/min over a 5 to 95% gradient of solvent B (95% acetonitrile, 0.2% formic acid) in 5 min, followed by 1.5 min at 95% and 0.5 min posttime. The AJS ESI source was operated with a capillary voltage of 4,000 V and a nozzle voltage of 600 V with a drying gas temperature of 325°C and flow rate of 10 liters/min, nebulizing gas pressure of 20 lb/in^2, and a sheath gas temperature of 300°C and flow rate of 11 liters/min. Mass spectra were acquired in the positive-ion mode from 100 to 3,200 m/z at a rate of 1 scan per second in extended dynamic range (2 GHz) mode. The fragmentor, skimmer, and octopole RF voltages were set to 200, 60, and 750 V, respectively. Data were acquired and analyzed with the Agilent MassHunter Workstation (version B.05).
Peptide digestion was performed as follows: 10 μl of peptide at 0.29 mM in 50:50 acetonitrile-water was dissolved in 990 μl 100 mM Tris-HCl (pH 8.0) with 10 mM CaCl2. Following measurement of the undigested (t0) sample, 10 μl of chymotrypsin at 50 μg/ml in 100 mM Tris-HCl (pH 8.0) with 10 mM CaCl2 was added, and the sample was vortexed and placed immediately in the autosampler, set to 25°C. The level of intact peptide was quantified by serial injection over time. Integration of the intact peptide compound chromatogram was performed using the Agilent Molecular Feature Extraction (MFE) algorithm. The value of the fit at t = 0 min was used to calculate the percentage of the intact peptide at each point as follows: Percent intact (t) = [Vol (t)/Volt0] × 100, where Vol is the total volume calculated using Find Compounds by Molecular Feature and Volt0 is the value of the fit at time t = 0. A plot of the intact peptide MFE peak area over time gave an exponential decay curve, from which the half-life was determined using MatLab […].

Data set [2] concerns rHRSV-mCherry in HEp-2 cells. Put plainly: rHRSV-mCherry inhibition assay. In kind it is cell-based, human respiratory syncytial virus. In short, it runs like this:
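HEp-2 cells infected at MOI 0.2 with rHRSV-mCherry preincubated 15–20 min with serially diluted peptide, peptide kept in 2% FBS medium for 48 h at 37°C. Replication read as mCherry fluorescence (ex 580/em 620 nm), normalized to untreated infected cells; duplicates, curves fitted.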

Data set [3] in a line: Temperature-dependent CD (T ramp), oligomeric state. As to conditions: 25 and 50 μM peptide, 25°C to 90°C in 5°C increments. In kind it is physicochemical. The protocol:
The temperature was increased from 25°C to 90°C in 5°C increments. […] Next, HEp-2 cells were infected with a recombinant RSV expressing the mCherry reported gene ([24]), and the inhibitory activity of the double-stapled peptides was quantified by fluorescence readout.
B) […]. The cell holding the sample was heating at the desired temperature and the CD spectra was measured as described in material and methods. The temperature was increased from 25 °C to 90 °C by 5 °C increments.
Panel C) and D) are the CD curve performed at 25 °C prior to increase the temperature (unheated) and after letting the sample heated at 90 °C (heated) cool down to 25 °C. […]

Each structure is given as a SMILES string. “Also recorded” adds a separate entry of the source. Bridge positions count the residues as written; N and C are the ends. Square brackets hold non-standard residues; d marks the D form. Peptide text beside a SMILES is read from it. R5 = C=CCCC[C@@](C)(N)C(=O)O; S5 = C=CCCC[C@](C)(N)C(=O)O

For orientation: half-life means the time in which the quantity being followed falls by half. The EC50 is the concentration that produces a half-maximal response. For `CC[C@H](C)[C@@H]1NC(=O)[C@H](Cc2ccccc2)NC(=O)[C@@](C)(NC(=O)[C@H](CC(C)C)NC(=O)[C@H](CO)NC(=O)[C@]2(C)CCCC=CCCC[C@@](C)(NC(=O)[C@H](CCC(=O)O)NC(C)=O)C(=O)N[C@@H]([C@@H](C)CC)C(=O)N[C@@H](CC(N)=O)C(=O)N2)CCCC=CCCC[C@@](C)(C(=O)N[C@@H](CO)C(=O)N[C@@H](CC(=O)O)C(=O)N[C@@H](CCC(=O)O)C(=O)N[C@@H](CC(C)C)C(=O)N[C@@H](CC(C)C)C(=O)N[C@@H](Cc2c[nH]cn2)C(=O)N[C@@H](CC(N)=O)C(=O)N[C@H](C(N)=O)C(C)C)NC(=O)[C@H](CCCNC(=N)N)NC1=O` [Peptide 4ca] (Ac-E[R5]IN[S5]SL[S5]FIR[S5]SDELLHNV-NH2; staple 2-5, 8-12), the half-life at 2.9 µM in data set [1] is 180 h. The EC50 in data set [2] (HEp-2, rHRSV-mCherry MOI 0.2, addition of peptide after infection of cells, 48 h p.i.) was found to be 8300 nM; in data set [2] (HEp-2, rHRSV-mCherry MOI 0.2, preincubation of the virus with peptide prior to cell infection, 48 h p.i.), 860 nM; in data set [2] (HEp-2, rHRSV-mCherry MOI 0.2, preincubation of virus with peptide and peptide maintained in medium after infection, 48 h p.i.), 470 nM; in data set [2] (HEp-2 cells, RSV-Cherry MOI 0.2, peptide and virus removed after infection and fresh peptide added, mCherry fluorescence 48 h p.i., at least twice in duplicate), 590 ± 130 nM; in data set [2] (Table 3 (Ala scan), HEp-2 cells, rHRSV-mCherry MOI 0.2, 2-fold serial dilutions (11 dilutions), duplicate, ± SD of fit), 780 ± 60 nM. In addition, the “increase of antiviral potency relative to T118” value in data set [2] (HEp-2, rHRSV-mCherry, EC50 versus T118 EC50 6.33 μM) is on record as 11 fold. Further, the “conformational change / aggregation on temperature ramping” value in data set [3] is “No significant conformational change; also recorded: does not aggregate”.
